# Measurements as given in patent publication US9789102B2, “H3 receptor antagonist for use in the treatment of alzheimer's disease” (SANOFI, priority 2012, dated 2017).
# Legend:
# [1] = test system: protein tau phosphorylation at AD-2 epitope; assay: Western blot of tau phosphorylation at AD-2 epitope after single administration (Example 1); assay type: in vivo; conditions: THY-Tau22 mice
# Experimental: (§1) For immunoblot analysis, frozen mouse tissues (either hippocampus or cortex) were homogenized using a Precellys 24 tissue homogenizer in 350 μl RIPA buffer from Cell Signaling (20 mM Tris-HCl (pH 7.5), 150 mM NaCl, 1 mM Na2 EDTA, 1 mM EGTA, 1% NP-40, 1% sodium deoxycholate, 2.5 mM sodium pyrophosphate, 1 mM beta-glycerophosphate, 1 mM Na3VO4, 1 μg/ml leupeptin) to which proteases inhibitors (Sigma cocktail 1% v/v) and phosphatases inhibitors (okadaic acid 1 μM, sodium fluoride 100 mM) were added. After centrifugation, 16000×g 4° C. for 10 minutes, protein content in supernatants was determined with BioRad DC Protein Assay kit, using BSA as a standard. […] Tau protein was detected using the following mouse antibody: AD-2 1/20.000^e (Biorad, 56484) which recognizes tau protein phosphorylated on Ser396 and Ser404. […]
# (§2) Following incubation with primary antibodies, blots were rinsed in TBS Tween 0.1% and incubated for 1 hour at room temperature in an anti-mouse IgG horseradish peroxidase (HRP)-linked secondary antibody 1/10,000^e (GE healthcare, NA9310) diluted in 5% non-fat dry milk in TBS Tween 0.1%. […] Quantification of immunoreactive signal was performed using Multigauge V3.0 software (FUJIFILM). […]
# [2] = test system: protein tau phosphorylation at AD-2 epitope; assay: Western blot of tau phosphorylation at AD-2 epitope after two-week administration (Example 2); assay type: in vivo; conditions: THY-Tau22 mice
# Experimental: as §1, §2
# [3] = test system: tau phosphorylation at the AT-8 epitope; assay: Western blot analysis of tau phosphorylation at AT-8 epitope after six months in food; assay type: in vivo, THY-Tau22 mice; conditions: 0.0034% in food, trend only, ns
# [4] = test system: MIP-1α gene expression; assay: mRNA expression of MIP-1α in hippocampus by QPCR after six months in food; assay type: in vivo, THY-Tau22 mice
# Excerpt: 2-(Cyclohexylmethyl)-N-{2-[(2S)-1-methylpyrrolidin-2-yl]ethyl}-1,2,3,4-tetrahydroisoquinoline-7-sulfonamide difumarate monohydrate was administrated as a supplement in food at doses of 0.00034%, 0.0034% and 0.034% for six months in THY-Tau22 and wild type mice as follows: • Tg Veh (n=17) • Tg Active Ingredient—0.034% (n=17) • Tg Active Ingredient—0.0034% (n=17) • Tg Active Ingredient—0.00034% (n=17) • WT Veh (n=17) • WT Active Ingredient—0.034% (n=17) • WT Active Ingredient—0.0034% (n=17) • WT Active Ingredient—0.00034% (n=17) • WT groups treated with Active Ingredient are not used in the biochemical and histological studies.
# 1. […] To assess the quality and concentration of the total RNA, 1 μl was analyzed on an RNA LabChip (Agilent) using a 2100 Bioanalyser, (Agilent Technologies). […]
# 2 μg of total RNA from each mouse was reverse transcribed with oligo (dT)16 and random primers using a High-Capacity cDNA Archive Kit (Applied Biosystems), following the manufacturer recommendations. […] For real time PCR, the housekeeping gene R.L37A, was amplified using a quantitect primer assay from Qiagen (QT00252266) and MIP1 alpha was amplified using the following primers (5′-[…]-3′) SEQ ID NO: 1; (5′-[…]-3′) SEQ ID NO: 2. […]
# [5] = Comparison of exposures in mice (6 months in food) with those expected at steady state in AD patients; assay type: in vivo
smiles,measurement,setting,value
"CN1CCC[C@H]1CCNS(=O)(=O)c1ccc2c(c1)CN(CC1CCCCC1)CC2 [2-(cyclohexylmethyl)-N-{2-[(2S)-1-methylpyrrolidin-2-yl]ethyl}-1,2,3,4-tetrahydroisoquinoline-7-sulfonamide difumarate monohydrate]",effect on protein tau phosphorylation at AD-2 epitope in the cortex,[1]; 3 mg/kg per os,did not elicit any effect
same,effect on protein tau phosphorylation at AD-2 epitope in the cortex,[1]; 10 mg/kg per os,did not elicit any effect
same,effect on protein tau phosphorylation at AD-2 epitope in the hippocampus,[2]; 0.002% in drinking water,did not elicit any effect
same,effect on protein tau phosphorylation at AD-2 epitope in the hippocampus,[2]; 0.02% in drinking water,did not elicit any effect
same,"inhibition of tau phosphorylation at the AT-8 epitope, hippocampus",[3],−22%
same,"MIP-1α gene expression in hippocampus, vs vehicle",[4]; 0.00034% in food,statistical significant decrease
same,"MIP-1α gene expression in hippocampus, vs vehicle",[4]; 0.0034% in food,statistical significant decrease
same,corresponding human dose (safe for patients) by comparison of exposures,[5]; 0.00034% in food of mice,about 0.25 mg
same,corresponding human dose (safe for patients) by comparison of exposures,[5]; 0.0034% in food of mice,about 2.5 mg
